Laboratory results reported in paper PMC3938723, “Learning from Host-Defense Peptides: Cationic, Amphipathic Peptoids with Potent Anticancer Activity” (PLoS ONE, 2014).
Non-standard residues stand in square brackets, D forms with d. Residues, ends and D or L forms follow the SMILES beside them. Nspe = C[C@H](NCC(=O)O)c1ccccc1; Nlys = NCCCCNCC(=O)O

Assays:
LNCaP (prostate cancer) = assay: MTS cell viability assay, LNCaP; assay type: cell-based; details: 72 h
Experimental: (§1) This assay is a colorimetric method for determining the number of viable cells in proliferation. Aliquots of 100 µl media containing 1×10^4 cells were distributed into each well of a 96-well plate (BD Falcon). The following day, when cell density reaches about ∼40% confluency, the cell media were removed and replaced with serial dilutions of peptoid stocks in culturing media. For peptoid dilutions, peptoid stocks were initially diluted in media at 100 µM and then diluted by half in series using a multichannel pipette, and maintained in 100 µl media for each concentration with triple repeats. After peptoid solutions were transferred onto cells in 96-well plates, cells were incubated at 37°C for certain time periods. Then 20 µl of the CellTiter 96 Aqueous Non-Radioactive cell proliferation assay (Promega) reagent which contains a tetrazolium compound, [3-(4,5-dimethylthiazol-2-yl)-5-(3-carboxymethoxyphenyl)-2-(4-sulfophenyl)-2H-tetrazolium, inner salt; MTS(a)], was added to each well and cells were further incubated for 2 h to metabolize. The absorbance of formazan products were measured at 490 nm in a microplate reader (Molecular Devices). Percentage of cell viability = (A -A testblank)/(A control -A blank)×100, where A is the absorbance of the test well and A control the average absorbance of wells with cells not treated with peptoids. A testblank (media, MTS, and diluted peptoids) and A blank (media and MTS) were background absorbances measured in the absence of cells.
(§2) The activity and selectivity of these peptoids against cancer cells were evaluated in vitro. Their cytotoxicity was tested in three cancer cell lines, MCF-7 (human breast cancer), LNCaP (human prostate cancer), and OVCAR-3 (human ovarian cancer). To estimate the selectivity of these peptoids in vitro, hemolytic activities of some peptoids were cited from previously published work (Table 2 **column), and the MRC-5 cell line (human fibroblasts derived from fetal lung tissues) and primary dermal fibroblasts were also tested as normal cell controls. Briefly, cells were treated with peptoids diluted in culturing media for certain time periods, and then cell viability was measured via MTS assays.

[1] = system: Primary dermal fibroblast; assay: MTS cell viability assay, primary dermal fibroblasts; assay type: cell-based; details: 72 h
Experimental: MCF-7, MCF-7/TxT50 and OVCAR-3 (available in ATCC) were kindly provided by Professor Branimir Sikic's lab at Stanford University, and were cultured in McCoy's 5A media (GIBCO) with 10% FBS and antibiotics. Primary dermal fibroblasts were gifts from Lifeline Cell Technology and were cultured <6 passages according to the protocol Lifeline provides. All the cells were cultured in cell incubators (Thermo Scientific) at 37°C with 5% CO2.
as §1, §2

[2] = Analytical RP-HPLC elution as relative measure of molecular hydrophobicity; assay type: physicochemical; details: percentage of acetonitrile at elution, analytic RP-HPLC, C18 column, linear water/acetonitrile (0.1% trifluoroacetic acid) gradient 5%-95% acetonitrile over 30 min
Description: Peptoids were synthesized using an ABI 433A peptide synthesizer (Applied Biosystems, Inc.) on Rink amide MBHA resin (EMD Biosciences, Gibbstown, NJ) using the submonomer protocol, [24]. Briefly, the amine on the nascent chain is bromoacetylated or chloroacetylated followed by SN2 displacement of bromide or chloride by a primary amine to form the side chain. Resin-bound peptoids were then exposed to a mixture of trifluoroacetic acid (TFA): triisopropylsilane: water (95∶2.5∶2.5, volume ratio) for 10 minutes to cleave peptoids from the resin. Crude peptoids were purified by reversed-phase high performance liquid chromatography (RP-HPLC) (Waters Corporation) using a C18 column and a linear acetonitrile/water gradient. A final purity >95% as measured by analytical RP-HPLC (Waters Corporation) was achieved, and the identity of each peptoid was confirmed using electrospray ionization mass spectrometry (ESI/MS). Pexiganan was synthesized by standard Fmoc chemistry on an ABI 433A peptide synthesizer ([…]). Unless indicated otherwise, all reagents were purchased from Sigma Aldrich (St. Louis, MO). Among the submonomers used, Nspe was derived from (S)-N-(1-phenylethyl)amine; Npm from benzylamine ([…]); NHis from histamine (2-[4-imidazolyl]ethylamine); NLeu from isobutylamine; NLys from N-tert-butoxycarbonyl-1,4-butanediamine (CNH Technologies, MA). Guanidinylation of NLys was carried out according to the reported procedure. When NHis was used in the peptoid sequence, chloroacetic acid was used. 5(6)-Carboxyfluorescein was used to label the N-terminus of peptoid 1 [28].
Peptoids were utilized herein as a peptidomimetic scaffold to capture the cationic, amphipathic nature of anticancer peptides, as well as to improve molecular stability and to increase chemical diversity. The design of anticancer peptoids were derived from previous antimicrobial peptoids and were further optimized hererin to improve the activity and selectivity of peptoids against anionic membranes, [24], [25]. […] Several novel variants were designed based on peptoid 1 but with different charges, amphipathicity, length, and helicity to change their activity or selectivity. The sequences of these variants, the solvent composition at RP-HPLC elution as a relative measure of molecular hydrophobicity, molecular net charges and their charge-to-length ratio are summarized in Table 1. […] Pexiganan, a clinically-relevant peptide analog of magainin 2 which was developed for topical treatment for diabetic foot infection, and LL-37, the only known human cathelicidin which is a non-selective antimicrobial peptide, were also tested for comparison.

mice = assay: Acute toxicity observation in xenograft mice; assay type: in vivo; details: intratumor injections ~1 mg/kg three times a week, xenograft NSG mice
Experimental: 80,000 cells from a dissociated second generation metastatic breast cancer tumor were suspended in Medium 199 containing 25% Matrix Matrigel (Becton Dickinson 354248) and injected into the mammary fat pad of 4–8 week old NOD.Cg-Prkdc^scid Il2rg^tm1Wjl/SzJ (NSG) mice. After two weeks, 100 µl PBS containing 110 µM peptoid 1 or control peptide was injected into the mammary fat pad three times a week, roughly at a dose of 1 mg/kg. Tumor volumes were determined using direct caliper measurements following […] of treatment.
Human breast cancer cells were implanted in the mammary fat pad of immunocompromised mice.

Q: What does the source list for `C[C@@H](c1ccccc1)N(CC(N)=O)C(=O)CN(C(=O)CN(CCCCN)C(=O)CN(C(=O)CN(C(=O)CN(CCCCN)C(=O)CN(C(=O)CN(C(=O)CN(CCCCN)C(=O)CN(C(=O)CN(C(=O)CNCCCCN)[C@@H](C)c1ccccc1)[C@@H](C)c1ccccc1)[C@@H](C)c1ccccc1)[C@@H](C)c1ccccc1)[C@@H](C)c1ccccc1)[C@@H](C)c1ccccc1)[C@@H](C)c1ccccc1` [Peptoid 1, H-(NLys-Nspe-Nspe)4-NH2] (H-[Nlys][Nspe][Nspe][Nlys][Nspe][Nspe][Nlys][Nspe][Nspe][Nlys][Nspe][Nspe]-NH2)?
A: LC50 LNCaP (prostate cancer) (LNCaP (prostate cancer)): 5 µM; LC50 Primary dermal fibroblast [1]: 8 µM; HPLC elution [2]: 65.1 % ACN; acute side effects in mice (mice): without causing any obvious acute side effects
